# PubChem BioAssay (NCI)
#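 Cells were grown in 96-well plates and exposed to each compound for 48 hours at five concentrations; endpoints were interpolated linearly between bracketing concentrations, or set to the highest concentration if not reached. Abbreviation: GI50, concentration required for 50% inhibition of growth. TGI is the concentration that stops growth completely.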
# Experiments:
# Experiment in all cases: inhibition of tumour cell growth, NCI panel, 48 h
# SN12C renal = system: SN12C renal
# ACHN renal = system: ACHN renal
# NCI-H226 lung = system: NCI-H226 lung
# SNB-75 CNS = system: SNB-75 CNS
# U251 CNS = system: U251 CNS
# SK-MEL-2 melanoma = system: SK-MEL-2 melanoma
# A549 NSCLC = system: A549 NSCLC
# LOX IMVI melanoma = system: LOX IMVI melanoma
# SK-OV-3 ovarian = system: SK-OV-3 ovarian
# SK-MEL-5 melanoma = system: SK-MEL-5 melanoma
# NCI-H522 lung = system: NCI-H522 lung
# HT29 colon = system: HT29 colon
# COLO 205 colon = system: COLO 205 colon
# A498 renal = system: A498 renal
# CCRF-CEM leukemia = system: CCRF-CEM leukemia
# EKVX NSCLC = system: EKVX NSCLC
# OVCAR-3 ovarian = system: OVCAR-3 ovarian
# HS 578T breast = system: HS 578T breast
# SNB-19 CNS = system: SNB-19 CNS
# OVCAR-4 ovarian = system: OVCAR-4 ovarian
# M14 melanoma = system: M14 melanoma
# NCI-H460 lung = system: NCI-H460 lung
# OVCAR-8 ovarian = system: OVCAR-8 ovarian
# K-562 leukemia = system: K-562 leukemia
# HCT-116 colon = system: HCT-116 colon
# CAKI-1 renal = system: CAKI-1 renal
# SK-MEL-28 melanoma = system: SK-MEL-28 melanoma
# 786-0 renal = system: 786-0 renal
# PC-3 prostate = system: PC-3 prostate
# SF-295 CNS = system: SF-295 CNS
# HOP-62 NSCLC = system: HOP-62 NSCLC
# SW-620 colon = system: SW-620 colon
# TK-10 renal = system: TK-10 renal
# HL-60(TB) leukemia = system: HL-60(TB) leukemia
# IGROV1 ovarian = system: IGROV1 ovarian
# UO-31 renal = system: UO-31 renal
# BT-549 breast = system: BT-549 breast
# SF-539 CNS = system: SF-539 CNS
# MALME-3M melanoma = system: MALME-3M melanoma
# RXF 393 renal = system: RXF 393 renal
# MCF7 breast = system: MCF7 breast
# KM12 colon = system: KM12 colon
# SF-268 CNS = system: SF-268 CNS
# MDA-MB-231 breast = system: MDA-MB-231 breast
# UACC-257 melanoma = system: UACC-257 melanoma
# DU-145 prostate = system: DU-145 prostate
# T-47D breast = system: T-47D breast
# HCT-15 colon = system: HCT-15 colon
# MOLT-4 leukemia = system: MOLT-4 leukemia
# UACC-62 melanoma = system: UACC-62 melanoma
# HOP-92 NSCLC = system: HOP-92 NSCLC
# MDA-MB-435 = system: MDA-MB-435
# NCI/ADR-RES ovarian = system: NCI/ADR-RES ovarian
# NCI-H23 lung = system: NCI-H23 lung
# SR leukemia = system: SR leukemia
# OVCAR-5 ovarian = system: OVCAR-5 ovarian
# HCC-2998 colon = system: HCC-2998 colon
# RPMI-8226 leukemia = system: RPMI-8226 leukemia
smiles,measurement,setting,value
CCC(C)C(NC(=O)C1CCCN1C(=O)C(NC(=O)C(C)N)C(C)C)C(N)=O (stereo not drawn),GI50,SN12C renal,> 100 µM
same,TGI,SN12C renal,> 100 µM
same,GI50,ACHN renal,> 100 µM
same,TGI,ACHN renal,> 100 µM
same,GI50,NCI-H226 lung,> 100 µM
same,TGI,NCI-H226 lung,> 100 µM
same,GI50,SNB-75 CNS,> 100 µM
same,TGI,SNB-75 CNS,> 100 µM
same,GI50,U251 CNS,> 100 µM
same,TGI,U251 CNS,> 100 µM
same,GI50,SK-MEL-2 melanoma,> 100 µM
same,TGI,SK-MEL-2 melanoma,> 100 µM
same,GI50,A549 NSCLC,> 100 µM
same,TGI,A549 NSCLC,> 100 µM
same,GI50,LOX IMVI melanoma,> 100 µM
same,TGI,LOX IMVI melanoma,> 100 µM
same,GI50,SK-OV-3 ovarian,> 100 µM
same,TGI,SK-OV-3 ovarian,> 100 µM
same,GI50,SK-MEL-5 melanoma,> 100 µM
same,TGI,SK-MEL-5 melanoma,> 100 µM
same,GI50,NCI-H522 lung,> 100 µM
same,TGI,NCI-H522 lung,> 100 µM
same,GI50,HT29 colon,> 100 µM
same,TGI,HT29 colon,> 100 µM
same,GI50,COLO 205 colon,> 100 µM
same,TGI,COLO 205 colon,> 100 µM
same,GI50,A498 renal,> 100 µM
same,TGI,A498 renal,> 100 µM
same,GI50,CCRF-CEM leukemia,> 100 µM
same,TGI,CCRF-CEM leukemia,> 100 µM
same,GI50,EKVX NSCLC,77.2 µM
same,TGI,EKVX NSCLC,> 100 µM
same,GI50,OVCAR-3 ovarian,> 100 µM
same,TGI,OVCAR-3 ovarian,> 100 µM
same,GI50,HS 578T breast,> 100 µM
same,TGI,HS 578T breast,> 100 µM
same,GI50,SNB-19 CNS,> 100 µM
same,TGI,SNB-19 CNS,> 100 µM
same,GI50,OVCAR-4 ovarian,> 100 µM
same,TGI,OVCAR-4 ovarian,> 100 µM
same,GI50,M14 melanoma,> 100 µM
same,TGI,M14 melanoma,> 100 µM
same,GI50,NCI-H460 lung,> 100 µM
same,TGI,NCI-H460 lung,> 100 µM
same,GI50,OVCAR-8 ovarian,> 100 µM
same,TGI,OVCAR-8 ovarian,> 100 µM
same,GI50,K-562 leukemia,> 100 µM
same,TGI,K-562 leukemia,> 100 µM
same,GI50,HCT-116 colon,> 100 µM
same,TGI,HCT-116 colon,> 100 µM
same,GI50,CAKI-1 renal,> 100 µM
same,TGI,CAKI-1 renal,> 100 µM
same,GI50,SK-MEL-28 melanoma,> 100 µM
same,TGI,SK-MEL-28 melanoma,> 100 µM
same,GI50,786-0 renal,> 100 µM
same,TGI,786-0 renal,> 100 µM
same,GI50,PC-3 prostate,> 100 µM
same,TGI,PC-3 prostate,> 100 µM
same,GI50,SF-295 CNS,> 100 µM
same,TGI,SF-295 CNS,> 100 µM
same,GI50,HOP-62 NSCLC,> 100 µM
same,TGI,HOP-62 NSCLC,> 100 µM
same,GI50,SW-620 colon,> 100 µM
same,TGI,SW-620 colon,> 100 µM
same,GI50,TK-10 renal,> 100 µM
same,TGI,TK-10 renal,> 100 µM
same,GI50,HL-60(TB) leukemia,> 100 µM
same,TGI,HL-60(TB) leukemia,> 100 µM
same,GI50,IGROV1 ovarian,> 100 µM
same,TGI,IGROV1 ovarian,> 100 µM
same,GI50,UO-31 renal,> 100 µM
same,TGI,UO-31 renal,> 100 µM
same,GI50,BT-549 breast,> 100 µM
same,TGI,BT-549 breast,> 100 µM
same,TGI,SF-539 CNS,> 100 µM
same,GI50,MALME-3M melanoma,52.3 µM
same,TGI,MALME-3M melanoma,> 100 µM
same,GI50,RXF 393 renal,> 100 µM
same,TGI,RXF 393 renal,> 100 µM
same,GI50,MCF7 breast,> 100 µM
same,TGI,MCF7 breast,> 100 µM
same,GI50,KM12 colon,> 100 µM
same,TGI,KM12 colon,> 100 µM
same,GI50,SF-268 CNS,> 100 µM
same,TGI,SF-268 CNS,> 100 µM
same,GI50,MDA-MB-231 breast,> 100 µM
same,TGI,MDA-MB-231 breast,> 100 µM
same,GI50,UACC-257 melanoma,> 100 µM
same,TGI,UACC-257 melanoma,> 100 µM
same,GI50,DU-145 prostate,> 100 µM
same,TGI,DU-145 prostate,> 100 µM
same,GI50,T-47D breast,> 100 µM
same,TGI,T-47D breast,> 100 µM
same,GI50,HCT-15 colon,> 100 µM
same,TGI,HCT-15 colon,> 100 µM
same,GI50,MOLT-4 leukemia,> 100 µM
same,TGI,MOLT-4 leukemia,> 100 µM
same,GI50,UACC-62 melanoma,> 100 µM
same,TGI,UACC-62 melanoma,> 100 µM
same,GI50,HOP-92 NSCLC,> 100 µM
same,TGI,HOP-92 NSCLC,> 100 µM
same,GI50,MDA-MB-435,> 100 µM
same,TGI,MDA-MB-435,> 100 µM
CCOC(=O)CCC(NC(=O)Cc1ccc(Oc2nc3ccccc3nc2-c2cccs2)cc1)C(=O)OCC (stereo not drawn),TGI,SN12C renal,> 100 µM
same,TGI,ACHN renal,18.3 µM
same,TGI,NCI-H226 lung,86.2 µM
same,TGI,NCI/ADR-RES ovarian,> 100 µM
same,TGI,U251 CNS,87.1 µM
same,TGI,SK-MEL-2 melanoma,> 100 µM
same,TGI,A549 NSCLC,62.8 µM
same,TGI,NCI-H23 lung,> 100 µM
same,TGI,LOX IMVI melanoma,> 100 µM
same,TGI,SK-MEL-5 melanoma,> 100 µM
same,TGI,NCI-H522 lung,> 100 µM
same,TGI,HT29 colon,> 100 µM
same,TGI,COLO 205 colon,> 100 µM
same,TGI,A498 renal,84.1 µM
same,TGI,CCRF-CEM leukemia,> 100 µM
same,TGI,EKVX NSCLC,> 100 µM
same,TGI,OVCAR-3 ovarian,29.2 µM
same,TGI,HS 578T breast,81.1 µM
same,TGI,SNB-19 CNS,37.2 µM
same,TGI,OVCAR-4 ovarian,94 µM
same,TGI,SR leukemia,> 100 µM
same,TGI,M14 melanoma,> 100 µM
same,TGI,NCI-H460 lung,> 100 µM
same,TGI,OVCAR-5 ovarian,> 100 µM
same,TGI,OVCAR-8 ovarian,14.2 µM
same,TGI,K-562 leukemia,> 100 µM
same,TGI,HCT-116 colon,> 100 µM
same,TGI,CAKI-1 renal,> 100 µM
same,TGI,SK-MEL-28 melanoma,> 100 µM
same,TGI,786-0 renal,15.3 µM
same,TGI,PC-3 prostate,> 100 µM
same,TGI,SF-295 CNS,> 100 µM
same,TGI,HOP-62 NSCLC,11.8 µM
same,TGI,SW-620 colon,> 100 µM
same,TGI,TK-10 renal,69.2 µM
same,TGI,HL-60(TB) leukemia,> 100 µM
same,TGI,IGROV1 ovarian,> 100 µM
same,TGI,UO-31 renal,72.7 µM
same,TGI,BT-549 breast,> 100 µM
same,TGI,SF-539 CNS,26.3 µM
same,TGI,HCC-2998 colon,> 100 µM
same,TGI,MALME-3M melanoma,> 100 µM
same,TGI,RXF 393 renal,27.5 µM
same,TGI,MCF7 breast,> 100 µM
same,TGI,KM12 colon,> 100 µM
same,TGI,RPMI-8226 leukemia,> 100 µM
same,TGI,SF-268 CNS,12.6 µM
same,TGI,MDA-MB-231 breast,29.1 µM
same,TGI,UACC-257 melanoma,> 100 µM
same,TGI,DU-145 prostate,> 100 µM
same,TGI,HCT-15 colon,> 100 µM
same,TGI,MOLT-4 leukemia,> 100 µM
same,TGI,UACC-62 melanoma,> 100 µM
same,TGI,HOP-92 NSCLC,47.7 µM
same,TGI,MDA-MB-435,> 100 µM
